Results: publication PMC11831190 (MedComm, 2025)
Read-outs that look alike come from different tables or passages of the source. Values belong to the molecule of their own block, whether it stands above or below them.

Experiment: Pharmacokinetic evaluation of Oraxol in patients with MBC (weeks 1 and 4)
Type: in vivo, human
Settings: for AUC(0-t) / Cmax / Tmax: human, in vivo, oral; for AUC(0-t): read-out: AUC (0-52) Mean
Description: Similarly, patients were readmitted to the clinic the preceding night dosing on week 4, day 1, and remained at the clinic until pharmacokinetic sampling was completed on Day 3 of that week.
Analytical determination of pharmacokinetic parameters was conducted in patients who provided at least one post‐dose blood sample. The study weeks were counted consecutively starting from week 1 for pharmacokinetic sampling. However, for week 4 pharmacokinetic sampling, a delay was permitted at the investigator's discretion to allow the relevant time to recuperate from any intolerable toxicity, if present. In the instance of treatment postponement, pharmacokinetic samples for week 4 were collected immediately after treatment resumed, regardless of whether a dose reduction were applied.
The pharmacokinetic parameters were synthesized utilizing descriptive data analysis, including mean, standard deviation, median, minimum, and maximum values. What is more, summaries of pharmacokinetic parameters included the geometric average and the coefficient of variation. Individual concentration data and corresponding area under the AUC timepoint data were tabulated in both nominal and actual sampling times for all patients. The concentration‐timepoint data (in actual times) were presented graphically for each subject.
The pharmacokinetic parameters were analyzed using logarithmic transformation, followed by statistical evaluation through analysis of variance, considering subject and treatment effects. […] This analysis allowed for the assessment of the pharmacokinetic profile of Oraxol over the course of treatment.

Tmax (0-24) Median (Study day 1): 5 h | Tmax (0-24) Median (Study day 22): 4.5 h
Structure (SMILES): COc1cc2c(cc1OC)CN(CCc1ccc(-n3nnc(-c4cc(OC)c(OC)cc4NC(=O)c4cc(=O)c5ccccc5o4)n3)cc1)CC2.CS(=O)(=O)O.O [HM30181A, HM30181A methanesulfonate monohydrate]

Structure (SMILES): CC(=O)O[C@H]1C(=O)[C@@]2(C)[C@H]([C@H](OC(=O)c3ccccc3)[C@]3(O)C[C@H](OC(=O)[C@H](O)[C@@H](NC(=O)c4ccccc4)c4ccccc4)C(C)=C1C3(C)C)[C@]1(OC(C)=O)CO[C@@H]1C[C@@H]2O [Paclitaxel]
Tmax (0-24) Median (Study day 1): 1 h | Tmax (0-24) Median (Study day 22): 1 h | AUC(0-t) (Study day 1): 3540 ng·h/mL | Cmax (Study day 1, read-out: Cmax (0-24) Mean): 288 ng/mL | Cmax (Study day 1, read-out: Cmax (24-48) Mean): 338 ng/mL | Cmax (Study day 1, read-out: Cmax (48-52) Mean): 324 ng/mL | Cmax (Study day 1, read-out: Cmax Mean): 404 ng/mL | Tmax (Study day 1, read-out: Tmax (24-48) Median): 25.5 h | Tmax (Study day 1, read-out: Tmax (48-52) Median): 49.3 h | AUC(0-t) (Study day 22): 3520 ng·h/mL | Cmax (Study day 22, read-out: Cmax (0-24) Mean): 329 ng/mL | Cmax (Study day 22, read-out: Cmax (24-48) Mean): 289 ng/mL | Cmax (Study day 22, read-out: Cmax (48-52) Mean): 313 ng/mL | Cmax (Study day 22, read-out: Cmax Mean): 398 ng/mL | Tmax (Study day 22, read-out: Tmax (24-48) Median): 25 h | Tmax (Study day 22, read-out: Tmax (48-52) Median): 49 h
